The subject of test [1] is Plasmodium falciparum. The test can be described thus: Antiparasitic activity against Plasmodium falciparum 3D7 infected in erythrocytes assessed as inhibition of parasite growth at 50 uM incubated for 48 hrs by SYBR Green I dye based fluorescence assay relative to control. The class given is functional. The note with it: 3D7, Erythrocyte.
Test [2] deals with Plasmodium falciparum. Nature of the test: Antiparasitic activity against Plasmodium falciparum 3D7 infected in erythrocytes assessed as parasite growth inhibition incubated for 48 hrs by SYBR Green I dye based fluorescence assay. It counts as functional, organism-based. The note with it: 3D7, Erythrocyte.

pIC50: −log10 of the molar value. Bounds are passed on as bounds.

In general, inhibition refers to the relative decrease from the control value, in per cent. The pIC50 is −log10 of the IC50, conventionally taken in molar units. For the molecule `CO[C@@H]1C[C@H](O[C@H]2C[C@@H]3C[C@H](O)[C@@H](C)[C@](O)(C[C@@H](O)CCCC(=O)O[C@H](C[C@@H](O)[C@H](C)[C@@H](O)[C@@H](C)[C@H](CC(C)C)O[C@H]4CC[C@H](O[C@H]5C[C@@H](O)[C@H](O[C@H]6C[C@@H](O)[C@H](O)[C@@H](C)O6)[C@@H](C)O5)[C@@H](C)O4)[C@@H](C)/C=C/C=C/[C@@H](O)C2)O3)O[C@H](C)[C@H]1O`, the inhibition at 50 µM in the test with Plasmodium falciparum [1] was determined as 74.8%. Further, the pIC50 with Plasmodium falciparum [2] is 4.49.

Take `CCN(CC)CCCC(C)Nc1ccnc2cc(Cl)ccc12` (configuration not stated) [CHLOROQUINE]: in the test with Plasmodium falciparum [1], the inhibition at 50 µM is 100%.

On to `CO[C@H]1[C@H](O)C[C@H](O[C@H]2[C@H](O)C[C@H](O[C@H]3CC[C@H](O[C@@H](CC(C)C)[C@H](C)[C@H](O)[C@@H](C)[C@H](O)C[C@H]4OC(=O)CCC[C@H](O)C[C@]5(O)O[C@H](C[C@H](O[C@H]6C[C@@H](OC)[C@H](O)[C@@H](C)O6)C[C@H](O)/C=C/C=C/[C@@H]4C)C[C@H](O)[C@H]5C)O[C@@H]3C)O[C@@H]2C)O[C@@H]1C`, for which the inhibition at 50 µM in the test with Plasmodium falciparum [1] was determined as 95.6%. In addition, the pIC50 with Plasmodium falciparum [2] was 4.80.

As for `CO[C@@H]1C[C@H](O[C@H]2C[C@@H]3C[C@H](O)[C@@H](C)[C@](O)(C[C@@H](O)CCCC(=O)O[C@H](C[C@@H](O)[C@H](C)[C@@H](O)[C@@H](C)[C@@H](O)CC(C)C)[C@@H](C)/C=C/C=C/[C@@H](O)C2)O3)O[C@H](C)[C@H]1O`, the inhibition at 50 µM in the test with Plasmodium falciparum [1] worked out at 34%. Moreover, in the test with Plasmodium falciparum [2], the negative logarithm of the IC50 (pIC50) was below 4.30.

For the origin of these results see ChEMBL document CHEMBL5113554, “Dactylosporolides: Glycosylated Macrolides from Dactylosporangium fulvum” (J Nat Prod, 2022).
